Measurements taken from PubChem BioAssay (NCI).
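Results reflect a 48-hour exposure of cells in 96-well plates to compound at five concentrations. GI50: concentration for 50% inhibition of growth. TGI denotes the concentration required for complete inhibition of growth.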

System: OVCAR-4 ovarian
Assay: DTP human tumour cell line panel, 48 h

| SMILES | GI50 [µM] | TGI [µM] |
| --- | --- | --- |
| CC1CN1CC(O)C(O)CN1CC1C (stereo not given) | 6.18 | > 100 |
| CCN(CC)c1ccc(C(=N)c2ccc(N(CC)CC)cc2)cc1 | 1.55 | 15.9 |

System: MDA-MB-435
Assay: DTP human tumour cell line panel, 48 h

| SMILES | TGI [µM] | GI50 [µM] |
| --- | --- | --- |
| Cc1cc(SCC(=O)c2ccccc2)nc2ccccc12 | > 100 | – |
| Cc1cc(C)c(C(=O)CC(=O)c2cccnc2)c(C)c1 | > 100 | 7.48 |
| CC1CN1CC(O)C(O)CN1CC1C (stereo not given) | 24.8 | 4.93 |
| CCN(CC)c1ccc(C(=N)c2ccc(N(CC)CC)cc2)cc1 | 1.3 | 0.318 |

System: SF-268 CNS
Assay: DTP human tumour cell line panel, 48 h

| SMILES | TGI [µM] | GI50 [µM] |
| --- | --- | --- |
| Cc1cc(SCC(=O)c2ccccc2)nc2ccccc12 | > 100 | – |
| Cc1cc(C)c(C(=O)CC(=O)c2cccnc2)c(C)c1 | > 100 | 10.5 |
| CC1CN1CC(O)C(O)CN1CC1C (stereo not given) | > 53.5 | 0.716 |
| CCN(CC)c1ccc(C(=N)c2ccc(N(CC)CC)cc2)cc1 | 2.67 | 0.602 |

System: LOX IMVI melanoma
Assay: DTP human tumour cell line panel, 48 h

| SMILES | TGI [µM] | GI50 [µM] |
| --- | --- | --- |
| Cc1cc(SCC(=O)c2ccccc2)nc2ccccc12 | > 100 | – |
| Cc1cc(C)c(C(=O)CC(=O)c2cccnc2)c(C)c1 | > 100 | 4.84 |
| CC1CN1CC(O)C(O)CN1CC1C (stereo not given) | 11.4 | 0.814 |
| CCN(CC)c1ccc(C(=N)c2ccc(N(CC)CC)cc2)cc1 | 2.02 | 0.598 |

System: SR leukemia
Assay: DTP human tumour cell line panel, 48 h

| SMILES | TGI [µM] | GI50 [µM] |
| --- | --- | --- |
| Cc1cc(SCC(=O)c2ccccc2)nc2ccccc12 | > 100 | – |
| Cc1cc(C)c(C(=O)CC(=O)c2cccnc2)c(C)c1 | 33.2 | 2.81 |
| CC1CN1CC(O)C(O)CN1CC1C (stereo not given) | > 100 | 0.053 |
| CCN(CC)c1ccc(C(=N)c2ccc(N(CC)CC)cc2)cc1 | 1.2 | 0.28 |

System: NCI/ADR-RES ovarian
Assay: DTP human tumour cell line panel, 48 h

| SMILES | TGI [µM] | GI50 [µM] |
| --- | --- | --- |
| Cc1cc(SCC(=O)c2ccccc2)nc2ccccc12 | > 100 | – |
| Cc1cc(C)c(C(=O)CC(=O)c2cccnc2)c(C)c1 | 9.88 | 2.29 |
| CC1CN1CC(O)C(O)CN1CC1C (stereo not given) | > 87.1 | 1.24 |
| CCN(CC)c1ccc(C(=N)c2ccc(N(CC)CC)cc2)cc1 | 1.83 | 0.412 |

System: PC-3 prostate
Assay: DTP human tumour cell line panel, 48 h

| SMILES | TGI [µM] | GI50 [µM] |
| --- | --- | --- |
| Cc1cc(SCC(=O)c2ccccc2)nc2ccccc12 | > 100 | – |
| Cc1cc(C)c(C(=O)CC(=O)c2cccnc2)c(C)c1 | > 100 | 8.73 |
| CC1CN1CC(O)C(O)CN1CC1C (stereo not given) | > 78.4 | 12.5 |
| CCN(CC)c1ccc(C(=N)c2ccc(N(CC)CC)cc2)cc1 | 4.76 | 0.492 |

System: NCI-H23 lung
Assay: DTP human tumour cell line panel, 48 h

| SMILES | TGI [µM] | GI50 [µM] |
| --- | --- | --- |
| Cc1cc(SCC(=O)c2ccccc2)nc2ccccc12 | > 100 | – |
| Cc1cc(C)c(C(=O)CC(=O)c2cccnc2)c(C)c1 | > 100 | 11.1 |
| CC1CN1CC(O)C(O)CN1CC1C (stereo not given) | > 75.4 | 2.37 |
| CCN(CC)c1ccc(C(=N)c2ccc(N(CC)CC)cc2)cc1 | 0.925 | 0.26 |

System: M14 melanoma
Assay: DTP human tumour cell line panel, 48 h

| SMILES | TGI [µM] | GI50 [µM] |
| --- | --- | --- |
| Cc1cc(SCC(=O)c2ccccc2)nc2ccccc12 | > 100 | – |
| Cc1cc(C)c(C(=O)CC(=O)c2cccnc2)c(C)c1 | 33.9 | 5.31 |
| CC1CN1CC(O)C(O)CN1CC1C (stereo not given) | 28.7 | 2.16 |
| CCN(CC)c1ccc(C(=N)c2ccc(N(CC)CC)cc2)cc1 | 1.83 | 0.524 |

System: MOLT-4 leukemia
Assay: DTP human tumour cell line panel, 48 h

| SMILES | TGI [µM] | GI50 [µM] |
| --- | --- | --- |
| Cc1cc(SCC(=O)c2ccccc2)nc2ccccc12 | > 100 | – |
| Cc1cc(C)c(C(=O)CC(=O)c2cccnc2)c(C)c1 | 38.4 | 4.41 |
| CC1CN1CC(O)C(O)CN1CC1C (stereo not given) | 3.15 | 0.234 |
| CCN(CC)c1ccc(C(=N)c2ccc(N(CC)CC)cc2)cc1 | 4.36 | 0.594 |

System: MDA-MB-231 breast
Assay: DTP human tumour cell line panel, 48 h

| SMILES | TGI [µM] | GI50 [µM] |
| --- | --- | --- |
| Cc1cc(SCC(=O)c2ccccc2)nc2ccccc12 | > 100 | – |
| Cc1cc(C)c(C(=O)CC(=O)c2cccnc2)c(C)c1 | > 100 | 11.2 |
| CC1CN1CC(O)C(O)CN1CC1C (stereo not given) | 45.3 | 13.9 |
| CCN(CC)c1ccc(C(=N)c2ccc(N(CC)CC)cc2)cc1 | 3.23 | 1.15 |

System: UACC-257 melanoma
Assay: DTP human tumour cell line panel, 48 h

| SMILES | TGI [µM] | GI50 [µM] |
| --- | --- | --- |
| Cc1cc(SCC(=O)c2ccccc2)nc2ccccc12 | > 100 | – |
| Cc1cc(C)c(C(=O)CC(=O)c2cccnc2)c(C)c1 | > 100 | 27.2 |
| CC1CN1CC(O)C(O)CN1CC1C (stereo not given) | 23.3 | 3.12 |
| CCN(CC)c1ccc(C(=N)c2ccc(N(CC)CC)cc2)cc1 | 2.25 | 0.744 |

System: NCI-H460 lung
Assay: DTP human tumour cell line panel, 48 h

| SMILES | TGI [µM] | GI50 [µM] |
| --- | --- | --- |
| Cc1cc(SCC(=O)c2ccccc2)nc2ccccc12 | > 100 | – |
| Cc1cc(C)c(C(=O)CC(=O)c2cccnc2)c(C)c1 | 82.9 | 3.39 |
| CC1CN1CC(O)C(O)CN1CC1C (stereo not given) | 13 | 0.319 |
| CCN(CC)c1ccc(C(=N)c2ccc(N(CC)CC)cc2)cc1 | 1.56 | 0.411 |

System: SNB-75 CNS
Assay: DTP human tumour cell line panel, 48 h

| SMILES | TGI [µM] | GI50 [µM] |
| --- | --- | --- |
| Cc1cc(SCC(=O)c2ccccc2)nc2ccccc12 | > 100 | – |
| Cc1cc(C)c(C(=O)CC(=O)c2cccnc2)c(C)c1 | > 100 | 26.6 |
| CC1CN1CC(O)C(O)CN1CC1C (stereo not given) | > 63 | 4.08 |
| CCN(CC)c1ccc(C(=N)c2ccc(N(CC)CC)cc2)cc1 | 6.89 | 0.849 |

System: T-47D breast
Assay: DTP human tumour cell line panel, 48 h

| SMILES | TGI [µM] | GI50 [µM] |
| --- | --- | --- |
| Cc1cc(SCC(=O)c2ccccc2)nc2ccccc12 | > 100 | – |
| Cc1cc(C)c(C(=O)CC(=O)c2cccnc2)c(C)c1 | > 100 | 10.2 |
| CC1CN1CC(O)C(O)CN1CC1C (stereo not given) | > 71.4 | 2.87 |
